In PMC4666783 (Organic & biomolecular chemistry, 2015):
Like-named read-outs stand apart in the source and are kept apart here.

Assays:
[1] = target: HIV-1 protease (Human immunodeficiency virus type 1 group M subtype B, UniProt P04585); experiment: HIV-1 protease enzyme inhibition, assay developed by Toth and Marshall; type: biochemical; details: for enzyme inhibitory activity: result in words, comparator as stated
[2] = test system: HIV-1; experiment: Antiviral activity, MTT assay; type: cell-based; details: for IC50: Human immunodeficiency virus 1, read-out: IC50 (antiviral); for antiviral potency: result in words, comparator as stated
[3] = test system: HIVDRV^RP20 drug resistant strains of HIV; experiment: microbe, parasite or virus in culture; type: cell-based, HIV-1

For `COc1ccc(S(=O)(=O)N(CC(C)C)C[C@@H](O)[C@H](Cc2ccccc2)NC(=O)O[C@H]2CCO[C@H]3OC[C@H](OC)[C@H]32)cc1` [Inhibitor 30b, (3R,3aR,4S,7aS)-3-Methoxyhexahydro-2H-furo[2,3-b]pyran-4-yl (2S,3R)-3-hydroxy-4-(N-isobutyl-4-methoxyphenylsulfonamido)-1-phenylbutan-2-ylcarbamate], the Ki [1] was 0.0045 nM, the “fold better enzymatic Ki compared to compound 30a” value ([1]; 30b vs 30a) was “over 300 fold” and the IC50 [2] was 0.2 nM. The “antiviral potency” value [2] was “subnanomolar antiviral activity”.

For `CCN[C@H]1CO[C@@H]2OCC[C@H](OC(=O)N[C@@H](Cc3ccccc3)[C@H](O)CN(CC(C)C)S(=O)(=O)c3ccc(OC)cc3)[C@@H]21` [Inhibitor 30j, (3R,3aS,4S,7aS)-3-(Ethylamino)hexahydro-2H-furo[2,3-b]pyran-4-yl (2S,3R)-3-hydroxy-4-(N-isobutyl-4-methoxyphenylsulfonamido)-1-phenylbutan-2-ylcarbamate], the “antiviral potency” value [2] was “subnanomolar antiviral activity”.

Work on `CC(C)CN(C[C@@H](O)[C@H](Cc1ccccc1)NC(=O)O[C@H]1CO[C@H]2OCC[C@H]21)S(=O)(=O)c1ccc(N)cc1` [Darunavir, darunavir, reference compound] yielded an IC50 [2] of 1.6 nM.

In the case of `CCN[C@H]1CO[C@@H]2OCC[C@H](OC(=O)N[C@@H](Cc3ccccc3)[C@H](O)CN(CC(C)C)S(=O)(=O)c3ccc(N)cc3)[C@@H]21` [Inhibitor 30k, (3R,3aS,4S,7aS)-3-(Ethylamino)hexahydro-2H-furo[2,3-b]pyran-4-yl (2S,3R)-4-(4-amino-N-isobutylphenylsulfonamido)-3-hydroxy-1-phenylbutan-2-ylcarbamate], the “antiviral potency” value [2] is reported as “significant reduction in antiviral potency”.

`COc1ccc(S(=O)(=O)N(CC(C)C)C[C@@H](O)[C@H](Cc2ccccc2)NC(=O)O[C@H]2CCO[C@H]3OC[C@H](OCc4ccccc4)[C@H]32)cc1` [Inhibitor 30e, (3R,3aR,4S,7aS)-3-(Benzyloxy)hexahydro-2H-furo[2,3-b]pyran-4-yl (2S,3R)-3-hydroxy-4-(N-isobutyl-4-methoxy-phenylsulfonamido)-1-phenylbutan-2-ylcarbamate] gave a Ki [1] of 0.012 nM and an IC50 [2] of 0.45 nM.

For `CCCN[C@H]1CO[C@@H]2OCC[C@H](OC(=O)N[C@@H](Cc3ccccc3)[C@H](O)CN(CC(C)C)S(=O)(=O)c3ccc(OC)cc3)[C@@H]21` [Inhibitor 30l, (3R,3aS,4S,7aS)-3-(Propylamino)hexahydro-2H-furo[2,3-b]pyran-4-yl (2S,3R)-3-hydroxy-4-(N-isobutyl-4-methoxyphenylsulfonamido)-1-phenylbutan-2-ylcarbamate], the “fold reduction in antiviral potency compared to 30j” value ([2]; 30l vs 30j) was roughly 3 fold.

In the case of `COc1ccc(S(=O)(=O)N(CC(C)C)C[C@@H](O)[C@H](Cc2ccccc2)NC(=O)O[C@H]2CCO[C@H]3OC[C@@H](OC)[C@H]32)cc1` [Inhibitor 30a, (3S,3aR,4S,7aS)-3-Methoxyhexahydro-2H-furo[2,3-b]pyran-4-yl (2S,3R)-3-hydroxy-4-(N-isobutyl-4-methoxyphenylsulfonamido)-1-phenylbutan-2-yl carbamate], the Ki ([1]; at least 5 data points, standard error less than 7%) is reported as 1.38 nM.

`CCO[C@H]1CO[C@@H]2OCC[C@H](OC(=O)N[C@@H](Cc3ccccc3)[C@H](O)CN(CC(C)C)S(=O)(=O)c3ccc(OC)cc3)[C@@H]21` [Inhibitor 30d, (3R,3aR,4S,7aS)-3-Ethoxyhexahydro-2H-furo[2,3-b]pyran-4-yl (2S,3R)-3-hydroxy-4-(N-isobutyl-4-methoxyphenyl-sulfonamido)-1-phenylbutan-2-ylcarbamate] was tested, and the Ki [1] was 0.0033 nM and the “enzyme inhibitory activity” value [1] was “comparable enzyme inhibitory activity”.

In the case of `COc1ccc(S(=O)(=O)N(CC(C)C)C[C@@H](O)[C@H](Cc2ccccc2)NC(=O)O[C@H]2CCO[C@H]3OC[C@H](O)[C@H]32)cc1` [Inhibitor 30f, (3R,3aS,4S,7aS)-3-Hydroxyhexahydro-2H-furo[2,3-b]pyran-4-yl (2S,3R)-3-hydroxy-4-(N-isobutyl-4-methoxyphenyl-sulfonamido)-1-phenylbutan-2-ylcarbamate], the Ki [1] is reported as 0.06 nM, the “fold less potent than compound 30b” value ([1]; enzyme inhibitory and antiviral activity, 30f vs 30b) is reported as 10 fold and the IC50 [2] is reported as 3.15 nM. The “antiviral activity against resistant variant” value ([3]; HIVDRV^RP20, preliminary assessment) was “maintained full antiviral activity” and the IC50 ([3]; Human immunodeficiency virus 1, read-out: IC50 against HIVDRV^RP20) was 3.3 nM.

`CO[C@H]1CO[C@@H]2OCC[C@H](OC(=O)N[C@@H](Cc3ccccc3)[C@H](O)CN(CC(C)C)S(=O)(=O)c3ccc(N)cc3)[C@@H]21` [Inhibitor 30c, (3R,3aR,4S,7aS)-3-Methoxyhexahydro-2H-furo[2,3-b]pyran-4-yl (2S,3R)-4-(4-amino-N-isobutylphenylsulfonamido)-3-hydroxy-1-phenylbutan-2-ylcarbamate] showed a Ki [1] of 0.037 nM and an IC50 [2] of 15 nM.

For `COc1ccc(S(=O)(=O)N(CC(C)C)C[C@@H](O)[C@H](Cc2ccccc2)NC(=O)O[C@H]2CCO[C@H]3OC[C@H](N(C)C)[C@H]32)cc1` [Inhibitor 30m, (3R,3aS,4S,7aS)-3-(Dimethylamino)hexahydro-2H-furo[2,3-b]pyran-4-yl (2S,3R)-3-hydroxy-4-(N-isobutyl-4-methoxyphenylsulfonamido)-1-phenylbutan-2-ylcarbamate], the “enzyme inhibitory activity” value [1] was “reduction in enzyme Ki” and the “fold improved antiviral activity over 30i” value ([2]; 30m vs 30i) was 3 fold.
